Measured values from ChEMBL document CHEMBL4354784, “On the road to structure-based development of anti-virulence therapeutics targeting the type III secretion system injectisome” (Medchemcomm, 2019).
pEC50, pIC50: −log10 of the molar value.

Columns and labels:
[1] = Inhibition of Pseudomonas aeruginosa MDM1912 T3SS assessed as reduction in ExoS-BLA fusion protein secretion by measuring hydrolysis of the chromogenic beta-lactamase substrate nitrocefin by colorimetric method
Salmonella enterica = experiment: Antimicrobial activity against Salmonella enterica infected in mouse assessed as increasing survival rate on day 9 relative to control; type: functional
[2] = Inhibition of Yersinia pseudotuberculosis serotype 3 T3SS assessed as reduction in YopH protein secretion using p-nitro phenyl phosphat/2-(N-morpholino)ethanesulfonic acid as substrate preincubated for 1 hr at 26 degC and subsequently incubated for 2 hrs at 37 degC followed by addition of substrate and measured after 15 mins
[3] = test system: Yersinia pseudotuberculosis; experiment: Inhibition of Yersinia pseudotuberculosis serotype 3 T3SS assessed as reduction in YopD protein expression at > 13 uM preincubated for 1 hr at 26 degC and subsequently incubated for 3 hrs at 37 degC by Western blot analysis relative to control
[4] = test system: Yersinia pseudotuberculosis; experiment: Inhibition of Yersinia pseudotuberculosis serotype 3 T3SS assessed as reduction in YopD protein secretion at > 13 uM preincubated for 1 hr at 26 degC and subsequently incubated for 3 hrs at 37 degC by Western blot analysis relative to control
Pseudomonas aeruginosa [5] = experiment: Antimicrobial activity against Pseudomonas aeruginosa; type: functional, organism-based
Pseudomonas aeruginosa [6] = experiment: Antimicrobial activity against Pseudomonas aeruginosa infected in mouse assessed as increasing survival rate after 6 days (RVB = 20%); type: functional

**Q.** With `O=C(N/N=C/c1cc(Br)cc(Br)c1O)c1ccc([N+](=O)[O-])cc1` as the compound, how does the pIC50 [1] read?
**A.** 6.10

**Q.** Which Survival (Salmonella enterica) does the source give for `Cc1ccc(C(C)C)c(O)c1` [THYMOL] here?
**A.** 70%

**Q.** Which results are given for `Oc1ccc([C@@H]2c3c(O)cc(O)cc3[C@@H]3c4c(cc(O)cc4[C@H]2[C@@H]2c4cc(O)cc5c4[C@@H](c4cc(O)cc(O)c4[C@H]2c2ccc(O)cc2)[C@H](c2ccc(O)cc2)O5)O[C@H]3c2ccc(O)cc2)cc1`?
**A.** pIC50 [2]: < 5.00; inhibition [3]: 100%; inhibition [4]: 100%

**Q.** What does the source list for `NCCCNCCCCNCCCNC(=O)c1ccccc1C1=c2cc3c4c(c2Oc2c1cc1c5c2CCCN5CCC1)CCC[N+]=4CCC3`?
**A.** pEC50 (Pseudomonas aeruginosa [5]): 5.00; MIC50 (Pseudomonas aeruginosa [5]): > 10 µM; Survival (Pseudomonas aeruginosa [6]): 100%
